The nature of series [1]: Cytotoxicity test (SRB), A549. The format is cell-based. Particulars: human, A549 non-small cell lung cancer cells. Here is the method:
(§1) Cytotoxicity of the compounds of the present invention was tested with human non-small cell lung cancer cells A549, human cervical cancer Hela cells, human skin cancer cells A431. The test was performed by referring to the method described by Rusnak et al (Rusnak D. W., et al., Cell Prolif., 2007, 40, 580-94).
(§2) In Dulbecco's Modified Eagle Medium (DMEM) comprising 10% fetal bovine serum, 2 mM glutamine and non-essential amino acids, cells were cultured at 37° C. in 5% CO2 cell incubator. Trypsin/ethylenediamine tetraacetic acid (EDTA) were used to harvest cells in cell culture bottle. The cells were added to a 96-well cell culture plate, 4000/well (0.1 ml medium), adhering wall overnight, 0.1 ml of the diluted solution of the compounds to be tested was added, the final concentration of DMSO was 0.25%. The cell culture plate was incubated at 37° C., 5% CO2 conditions for 72 h. The change of cellular morphology was observed under microscope, and then 50 μl of 50% (mass/volume) trichloroacetic acid (TCA) was added to each well to fix cells. The final concentration of TCA was 10%. It stood for 5 min, than was placed in 4° C. refrigerator for 1 h, the wells of the culture plate were washed with deionized water for 5 times to remove TCA, drained, dried in air until no wet trace was observed. 100 μl of 0.4% (mass/volume) SRB was added to each well, stood at room temperature for 10 min. The liquid in each well was discarded, and then the wells were washed with 1% acetic acid for 5 times, dried in air, extracted with 150 μl of 10 mM Tris base (trihydroxymethylaminomethane, pH 10.5). The absorption at a wavelength of 540 nm was measured. The IC50 (μM) of the compound was calculated using Logit method.

The subject of series [2] is human colon cancer HT 29 transplanted tumor. The experiment in a line: Nude mice transplanted tumor test. The series is classed as in vivo, female Balb/cA nude mice. The arrangement: key to d21 Vave ± SD (average tumor volume): tumor volume TV = ½×a×b² (a, b = major, minor diameter), in mm³. To be noted: for Dead animal number / inhibition in vivo at 80 mg/kg / d21 Wave ± SD (average bodyweight of nude mice) / d21 Vave ± SD (average tumor volume) / d21 RTV ± SD (relative tumor volume): 80 mg/kg intragastrically each day for 20 days; for Dead animal number: dead/total animals; for Activity of inhibiting HT-29 transplanted tumor in vivo (in words): 80 mg/kg, compared with positive control Sunitinib; for inhibition in vivo at 80 mg/kg: Mus musculus, HT-29, po, 504 h, (1−T/C)×100%, read-out: Tumor inhibition rate d21 (%); for inhibition in vivo at 80 mg/kg / d21 Wave ± SD (average bodyweight of nude mice) / d21 Vave ± SD (average tumor volume) / d21 RTV ± SD (relative tumor volume): d21; for d0 Wave ± SD (average bodyweight of nude mice): d0, at grouping before administration (baseline); for d21 Vave ± SD (average tumor volume): HT 29 in nude mice; for d21 RTV ± SD (relative tumor volume): RTV=Vt/V0. On the procedure: The nude mice transplanted tumor test used female Balb/cA nude mice, and tumor strains were human colon cancer HT 29 strains.
Under sterile condition, eugonic tumor tissues stage were cut into pieces of about 1.5 mm^3, and inoculated at right axillary fossa of the nude mice. The transplanted tumor diameter was measured by vernier caliper, and the animals were randomly grouped after the tumors grew to about 120 mm^3. The positive control group and the compounds group in a dosage of 80 mg/kg were administered intragastrically each day for consecutive 20 days. The negative control group was given equivalent amount of injection water containing 0.1% Tween 80. Tumor diameters and the bodyweight of mice were measured 2-3 times every week. The evaluation indexes observed in the test include relative tumor proliferation rate, bodyweight and general states. The formulation for calculating tumor volume (TV) is: TV=½×a×b^2, wherein a, b represent major diameter and minor diameter of tumor; Relative tumor volume (RTV) was calculated according the results of measurement by the following formula: RTV=Vt/V0, wherein V0 is tumor volume measured when dividing groups for administration, and Vt is tumor volume measured after each administration.

Series [3] in a line: Cytotoxicity test (SRB), Hela. The format is cell-based. Particulars: human, Hela cervical cancer cells. On the procedure:
Cytotoxicity of the compounds of the present invention was tested with human non-small cell lung cancer cells A549, human cervical cancer Hela cells, human skin cancer cells A431. The test was performed by referring to the method described by Rusnak et al (Rusnak D. W., et al., Cell Prolif., 2007, 40, 580-94). […] Trypsin/ethylenediamine tetraacetic acid (EDTA) were used to harvest cells in cell culture bottle. The cells were added to a 96-well cell culture plate, 4000/well (0.1 ml medium), adhering wall overnight, 0.1 ml of the diluted solution of the compounds to be tested was added, the final concentration of DMSO was 0.25%. The cell culture plate was incubated at 37° C., 5% CO2 conditions for 72 h. […] The absorption at a wavelength of 540 nm was measured. The IC50 (μM) of the compound was calculated using Logit method.

Series [4] in a line: Cytotoxicity test (SRB), A431. The series is classed as cell-based. To be noted: human, A431 skin cancer cells. On the procedure:
as §1, §2

Series [5] concerns arterial ring angiogenesis in rats. The series can be described thus: Inhibitory actions on arterial ring angiogenesis in rats. To be noted: Rattus norvegicus, area covered by micrangiums vs control well, read-out: Inhibitory rate (%); for inhibition at 0.2 µg/mL: 0.2 μg/ml; for inhibition at 1 µg/mL: 1 μg/ml; for inhibition at 5 µg/mL: 5 μg/ml. The series is classed as cell-based. Here is the method: This experiment was conducted by referring to the method described by R. F. Nicosia et al (Nicosia, R. F., et al. Am J Pathol., 1997, 151, 1379-1386). Rats were executed by cervical dislocation. The thoracic aorta was carefully separated, and placed in a container with physiological saline. The excess tissues were carefully cut off. The blood vessels were cut with a pair of ophthalmic scissors to form 1 mm thick vascular ring slices. To a pre-cooled 96-well cell culture plate, one separated vascular ring was placed in the center of each well. 70 μl of pre-molten Matrigel was carefully added to cover the vascular ring, which was incubated at 37° C. for 1 h so as to solidify it. […] The sample was placed in incubator for conventional culture, and each compound was tested at least in two repeated wells, and each test was repeated twice. […] The fresh culture medium was replaced every 3 days, and the drug was changed at the same time. The survival status of vascular rings was observed under microscope, and pictures were taken at the same time. Image Pro Plus software was used to calculate the area covered by micrangiums. The average inhibition rate was calculated by using the formula: inhibition rate (%)=(area of control well−area of drug well)/area of control well×100%.

The structures appear in SMILES notation.

As to `CCN(CC)CCC(=O)Nc1c(C)[nH]c(/C=C2\C(=O)Nc3ccc(F)cc32)c1C` [Compound 1, N-{5-[5-fluoro-2-oxo-1,2-dihydro-indol-(3Z)-ylidenemethyl]-2,4-dimethyl-1H-pyrrol-3-yl}-3-(N,N-diethylamino)propionamide], the IC50 at 72 h in series [1] was above 30 µM. Also, in series [2], the Dead animal number is 0/6, the “Activity of inhibiting HT-29 transplanted tumor in vivo (in words)” value was “inhibitory activity comparable to the positive control Sunitinib”, the inhibition in vivo at 80 mg/kg was 86.9% and the “d0 Wave ± SD (average bodyweight of nude mice)” value (from here on “d0 Wave ± SD”) is reported as 18.6 ± 1.20. Besides, in series [2], the “d21 Wave ± SD (average bodyweight of nude mice)” value (“d21 Wave ± SD” for short) turned out to be 18.8 ± 2.97 and the “d21 RTV ± SD (relative tumor volume)” value is 0.94 ± 0.12. The “d21 Vave ± SD (average tumor volume)” value in series [2] (in mm³ (unit assumed)) was determined as 102.8 ± 26.2. In series [3], the IC50 at 72 h is above 30 µM. Further, the IC50 at 72 h in series [4] is above 30 µM. Further, in series [5], the inhibition at 0.2 µg/mL came out at 99%, the inhibition at 1 µg/mL turned out to be 100% and the inhibition at 5 µg/mL was 100%.
For the compound `CCN(CC)CCC(=O)Nc1c(C)[nH]c(/C=C2\C(=O)Nc3ccc(Cl)cc32)c1C` [Compound 2, N-{5-[5-chloro-2-oxo-1,2-dihydro-indol-(3Z)-ylidenemethyl]-2,4-dimethyl-1H-pyrrol-3-yl}-3-(N,N-diethylamino)propionamide], the IC50 at 72 h in series [1] is above 30 µM. Moreover, in series [2], the Dead animal number is on record as 0/6, the inhibition in vivo at 80 mg/kg was found to be 63.8%, the “d0 Wave ± SD” value is reported as 18.8 ± 0.35 and the “d21 Wave ± SD” value is given as 19.9 ± 0.68. Also, in series [2], the “d21 Vave ± SD (average tumor volume)” value is listed as 300.3 ± 36.8 and the “d21 RTV ± SD (relative tumor volume)” value is listed as 2.60 ± 0.52. Besides, in series [3], the IC50 at 72 h is above 30 µM. Further, the IC50 at 72 h in series [4] is above 30 µM. Moreover, in series [5], the inhibition at 0.2 µg/mL was 94%, the inhibition at 1 µg/mL was 100% and the inhibition at 5 µg/mL worked out at 100%.
In series [1], `Cc1[nH]c(/C=C2\C(=O)Nc3ccc(F)cc32)c(C)c1NC(=O)/C=C/CN(C)C` [Compound 4, N-{5-[5-fluoro-2-oxo-1,2-dihydro-indol-(3Z)-ylidenemethyl]-2,4-dimethyl-1H-pyrrol-3-yl}-4-(N,N-dimethylamino)-(2E)-crotonamide] registered an IC50 at 72 h above 30 µM. Besides, in series [2], the Dead animal number is given as 0/6, the “Activity of inhibiting HT-29 transplanted tumor in vivo (in words)” value is “inhibitory activity comparable to the positive control Sunitinib”, the inhibition in vivo at 80 mg/kg was 91% and the “d0 Wave ± SD” value is listed as 19.6 ± 0.22. Moreover, in series [2], the “d21 Wave ± SD” value was 19.6 ± 0.85 and the “d21 RTV ± SD (relative tumor volume)” value was 0.65 ± 0.28. Further, the “d21 Vave ± SD (average tumor volume)” value in series [2] (in mm³ (unit assumed)) came out at 80.0 ± 33.2. This compound also returned an IC50 at 72 h in series [3] above 30 µM. In series [4], this compound gave an IC50 at 72 h above 30 µM. For the same compound, in series [5], the inhibition at 0.2 µg/mL was 98%, the inhibition at 1 µg/mL came out at 100% and the inhibition at 5 µg/mL was found to be 100%.
`Cc1[nH]c(/C=C2\C(=O)Nc3ccc(F)cc32)c(C)c1NC(=O)CCN1CCCC1` [Compound 14, N-{5-[5-fluoro-2-oxo-1,2-dihydro-indol-(3Z)-ylidenemethyl]-2,4-dimethyl-1H-pyrrol-3-yl}-3-(tetrahydropyrrol-1-yl)propionamide] showed an IC50 at 72 h in series [1] above 30 µM. In series [3], the concentration for half-maximal inhibition (IC50) at 72 h is above 30 µM. Moreover, the IC50 at 72 h in series [4] was above 30 µM. For the same compound, in series [5], the inhibition at 0.2 µg/mL worked out at 88%, the inhibition at 1 µg/mL was determined as 100% and the inhibition at 5 µg/mL is 100%.
On to `Cc1[nH]c(/C=C2\C(=O)Nc3ccc(F)cc32)c(C)c1NC(=O)CN1CCN(C)CC1` [Compound 15, N-{5-[5-fluoro-2-oxo-1,2-dihydro-indol-(3Z)-ylidenemethyl]-2,4-dimethyl-1H-pyrrol-3-yl}-2-(4-methylpiperazin-1-yl)acetamide], for which the IC50 at 72 h in series [1] is above 30 µM. This compound gave an IC50 at 72 h in series [3] above 30 µM. Also, the IC50 at 72 h in series [4] is above 30 µM. For the same compound, in series [5], the inhibition at 0.2 µg/mL turned out to be 89%, the inhibition at 1 µg/mL was 100% and the inhibition at 5 µg/mL is 100%.
In series [1], `CCN(CC)CC(=O)Nc1c(C)[nH]c(/C=C2\C(=O)Nc3cc(OC)ccc32)c1C` [Compound 23, N-{5-[6-methoxy-2-oxo-1,2-dihydro-indol-(3Z)-ylidenemethyl]-2,4-dimethyl-1H-pyrrol-3-yl}-2-(N,N-diethylamino)acetamide] showed an IC50 at 72 h above 30 µM. This compound had an IC50 at 72 h in series [3] above 30 µM. In addition, the IC50 at 72 h in series [4] was above 30 µM. Besides, in series [5], the inhibition at 0.2 µg/mL was 90%, the inhibition at 1 µg/mL amounted to 100% and the inhibition at 5 µg/mL came to 100%.
`CCN(CC)CC(=O)Nc1c(C)[nH]c(/C=C2\C(=O)Nc3ccc(NS(C)(=O)=O)cc32)c1C` [Compound 25, N-{5-[5-methylsulfonylamino-2-oxo-1,2-dihydro-indol-(3Z)-ylidenemethyl]-2,4-dimethyl-1H-pyrrol-3-yl}-2-(N,N-diethylamino)acetamide]: the IC50 at 72 h in series [1] is above 30 µM; in series [3], above 30 µM; in series [4] it was 6.57 µM. Further, the inhibition at 0.2 µg/mL in series [5] amounted to 89%. For the same compound, in series [5], the inhibition at 1 µg/mL was 100%. For the same compound, the inhibition at 5 µg/mL in series [5] was found to be 100%.
For `CCN(CC)CC(=O)Nc1c(C)[nH]c(/C=C2\C(=O)Nc3cc(C)ccc32)c1C` [Compound 27, N-{5-[6-methyl-2-oxo-1,2-dihydro-indol-(3Z)-ylidenemethyl]-2,4-dimethyl-1H-pyrrol-3-yl}-2-(N,N-diethylamino)acetamide], in series [1], the IC50 at 72 h was above 30 µM. The compound also displayed an IC50 at 72 h in series [3] above 30 µM. In addition, the IC50 at 72 h in series [4] was above 30 µM. Further, in series [5], the inhibition at 0.2 µg/mL was determined as 78%, the inhibition at 1 µg/mL worked out at 95% and the inhibition at 5 µg/mL amounted to 100%.

The values are drawn from US8637681B2, “Pyrrolyl substituted dihydroindol-2-one derivatives, preparation methods and uses thereof” (Qilu Pharmaceutical Co., Ltd., priority 2010, dated 2014).
